From US11857519B2, “Compounds and methods for the targeted degradation of enhancer of zeste homolog 2 polypeptide” (Arvinas Operations, Inc., priority 2016, dated 2024)

Biological target: T1, EZH2 (Homo sapiens, UniProt Q15910)
T1 construct: Protocol of the Cellular Assay of Target Protein Degradation (VCaP Cells, ELISA); endogenous in cells; host or cells: VCaP cells
Assay: Cellular assay of target protein degradation (VCaP cells, ELISA)
Type: cell-based
Conditions: 4 hours, protein degradation range at indicated concentration (relative to DMSO control)
Method in brief: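 VCaP cells grown ≥3 days in RPMI with 5% CSS, then dosed with compounds in 0.1% DMSO for 4 h. Lysates analysed by sandwich ELISA for EZH2 with TMB readout at 450 nm, 562 nm used for background subtraction.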

T1 sequence (Q15910 whole entry): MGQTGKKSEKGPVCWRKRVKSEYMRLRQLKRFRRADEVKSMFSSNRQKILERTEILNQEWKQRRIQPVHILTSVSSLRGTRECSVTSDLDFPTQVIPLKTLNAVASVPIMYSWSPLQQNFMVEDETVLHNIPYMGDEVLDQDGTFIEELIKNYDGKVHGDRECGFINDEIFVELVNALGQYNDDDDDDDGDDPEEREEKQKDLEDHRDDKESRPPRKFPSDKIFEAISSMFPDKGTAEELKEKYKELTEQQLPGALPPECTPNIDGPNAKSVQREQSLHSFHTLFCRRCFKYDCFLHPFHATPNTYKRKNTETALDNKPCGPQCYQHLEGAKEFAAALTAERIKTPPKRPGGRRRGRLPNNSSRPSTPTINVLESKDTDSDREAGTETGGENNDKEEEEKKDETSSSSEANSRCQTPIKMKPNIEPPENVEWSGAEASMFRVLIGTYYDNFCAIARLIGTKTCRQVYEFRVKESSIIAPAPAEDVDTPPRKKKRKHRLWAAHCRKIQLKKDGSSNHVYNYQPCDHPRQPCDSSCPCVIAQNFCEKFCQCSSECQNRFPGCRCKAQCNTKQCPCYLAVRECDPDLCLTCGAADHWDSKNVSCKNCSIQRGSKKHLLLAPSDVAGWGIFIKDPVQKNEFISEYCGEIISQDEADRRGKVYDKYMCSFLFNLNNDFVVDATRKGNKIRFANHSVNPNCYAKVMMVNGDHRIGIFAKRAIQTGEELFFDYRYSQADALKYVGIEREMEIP
T1 sequence (O75530 whole entry partner): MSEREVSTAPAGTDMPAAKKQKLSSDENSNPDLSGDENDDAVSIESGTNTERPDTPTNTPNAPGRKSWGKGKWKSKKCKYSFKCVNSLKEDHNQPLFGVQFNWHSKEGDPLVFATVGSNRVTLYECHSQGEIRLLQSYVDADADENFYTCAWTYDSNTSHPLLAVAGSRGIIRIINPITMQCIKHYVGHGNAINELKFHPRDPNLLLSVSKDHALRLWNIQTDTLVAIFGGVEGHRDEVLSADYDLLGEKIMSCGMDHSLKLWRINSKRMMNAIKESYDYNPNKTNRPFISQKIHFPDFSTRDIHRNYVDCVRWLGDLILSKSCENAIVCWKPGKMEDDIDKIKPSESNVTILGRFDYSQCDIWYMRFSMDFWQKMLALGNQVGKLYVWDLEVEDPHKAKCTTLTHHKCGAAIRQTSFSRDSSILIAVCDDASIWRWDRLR
T1 sequence (Q15022 whole entry partner): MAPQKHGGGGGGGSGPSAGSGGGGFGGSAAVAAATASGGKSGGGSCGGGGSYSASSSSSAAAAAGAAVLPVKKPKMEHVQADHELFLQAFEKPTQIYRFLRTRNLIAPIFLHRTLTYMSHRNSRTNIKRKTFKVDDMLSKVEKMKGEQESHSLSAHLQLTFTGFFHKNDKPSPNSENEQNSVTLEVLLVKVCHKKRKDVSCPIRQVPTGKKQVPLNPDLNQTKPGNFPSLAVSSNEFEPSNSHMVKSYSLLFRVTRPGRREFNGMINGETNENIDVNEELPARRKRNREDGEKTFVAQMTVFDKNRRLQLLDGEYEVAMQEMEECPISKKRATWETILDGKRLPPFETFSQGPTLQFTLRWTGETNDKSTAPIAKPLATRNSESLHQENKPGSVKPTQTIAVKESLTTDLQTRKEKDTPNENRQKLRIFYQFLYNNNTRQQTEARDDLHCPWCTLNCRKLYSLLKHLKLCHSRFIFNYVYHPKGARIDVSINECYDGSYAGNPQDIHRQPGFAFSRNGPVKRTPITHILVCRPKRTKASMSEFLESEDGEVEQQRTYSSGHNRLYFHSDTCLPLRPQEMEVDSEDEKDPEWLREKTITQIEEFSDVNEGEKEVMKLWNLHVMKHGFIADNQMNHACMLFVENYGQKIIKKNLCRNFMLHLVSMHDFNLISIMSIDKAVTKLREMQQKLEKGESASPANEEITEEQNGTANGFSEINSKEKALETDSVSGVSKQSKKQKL

SMILES	percent target protein degradation class
CCN(c1cc(-c2ccc(CCOCCOc3cc(C(C(=O)N4C[C@H](O)C[C@H]4C(=O)N[C@@H](C)c4ccc(-c5scnc5C)cc4)C(C)C)on3)cc2)cc(C(=O)NCc2c(C)cc(C)[nH]c2=O)c1C)C1CCOCC1 (stereo partly drawn) [Compound 110, (2S,4R)-1-(2-(3-(2-(2-(3′-(((4,6-dimethyl-2-oxo-1,2-dihydropyridin-3-yl)methyl)carbamoyl)-5′-(ethyl(tetrahydro-2H-pyran-4-yl)amino)-4′-methyl-[1,1′-biphenyl]-4-yl)ethoxy)ethoxy)isoxazol-5-yl)-3-methylbutanoyl)-4-hydroxy-N-((S)-1-(4-(4-methylthiazol-5-yl)phenyl)ethyl)pyrrolidine-2-carboxamide]	A (A = degradation more than 60%)
CCN(c1cc(-c2ccc(OCCCOCCOc3cc(-c4scnc4C)ccc3CNC(=O)[C@@H]3C[C@@H](O)CN3C(=O)[C@H](C(C)C)N3Cc4ccccc4C3=O)cc2)cc(C(=O)NCc2c(C)cc(C)[nH]c2=O)c1C)C1CCOCC1 [Compound 56, (2S,4R)-N-{[2-(2-{3-[4-(3-{[(4,6-dimethyl-2-oxo-1,2-dihydropyridin-3-yl)methyl]carbamoyl}-5-[ethyl(oxan-4-yl)amino]-4-methylphenyl)phenoxy]propoxy}ethoxy)-4-(4-methyl-1,3-thiazol-5-yl)phenyl]methyl}-4-hydroxy-1-[(2S)-3-methyl-2-(1-oxo-2,3-dihydro-1H-isoindol-2-yl)butanoyl]pyrrolidine-2-carboxamide]	B (B = degradation between 30% and 60%)
CCN(c1cc(-c2ccc(OCCOCCOCCOCCOCCOc3cc(-c4scnc4C)ccc3CNC(=O)[C@@H]3C[C@@H](O)CN3C(=O)[C@H](C(C)C)N3Cc4ccccc4C3=O)cc2)cc(C(=O)NCc2c(C)cc(C)[nH]c2=O)c1C)C1CCOCC1 [Compound 35, (2S,4R)-N-{[2-({1-[4-(3-{[(4,6-dimethyl-2-oxo-1,2-dihydropyridin-3-yl)methyl]carbamoyl}-5-[ethyl(oxan-4-yl)amino]-4-methylphenyl)phenyl]-1,4,7,10,13-pentaoxapentadecan-15-yl}oxy)-4-(4-methyl-1,3-thiazol-5-yl)phenyl]methyl}-4-hydroxy-1-[(2S)-3-methyl-2-(1-oxo-2,3-dihydro-1H-isoindol-2-yl)butanoyl]pyrrolidine-2-carboxamide]	B (B = degradation between 30% and 60%)
Cc1cc(C)c(CNC(=O)c2cc(-c3ccc(CN4CCN(CCOCCCOCCCOCC(=O)N[C@H](C(=O)N5C[C@H](O)C[C@H]5C(=O)NCc5ccc(-c6scnc6C)cc5)C(C)(C)C)CC4)cc3)cc3c2ccn3C2CCCC2)c(=O)[nH]1 [Compound 4, 1-cyclopentyl-N-[(4,6-dimethyl-2-oxo-1,2-dihydropyridin-3-yl)methyl]-6-(4-{[4-(2-{3-[3-({[(2S)-1-[(2S,4R)-4-hydroxy-2-({[4(4-methyl-1,3-thiazol-5-yl)phenyl]methyl}carbamoyl)pyrrolidin-1-yl]-3,3-dimethyl-1-oxobutan-2-yl]carbamoyl}methoxy)propoxy]propoxy}ethyl)piperazin-1-yl]methyl}phenyl)-1H-indole-4-carboxamide]	B (B = degradation between 30% and 60%)
CCN(c1cc(-c2ccc(OCCCCCCOc3cc(C(C(=O)N4C[C@H](O)C[C@H]4C(=O)N[C@@H](C)c4ccc(-c5scnc5C)cc4)C(C)C)on3)cc2)cc(C(=O)NCc2c(C)cc(C)[nH]c2=O)c1C)C1CCOCC1 (stereo partly drawn) [Compound 106, (2S,4R)-1-(2-(3-((6-((3′-(((4,6-dimethyl-2-oxo-1,2-dihydropyridin-3-yl)methyl)carbamoyl)-5′-(ethyl(tetrahydro-2H-pyran-4-yl)amino)-4′-methyl-[1,1′-biphenyl]-4-yl)oxy)hexyl)oxy)isoxazol-5-yl)-3-methylbutanoyl)-4-hydroxy-N-((S)-1-(4-(4-methylthiazol-5-yl)phenyl)ethyl)pyrrolidine-2-carboxamide]	A (A = degradation more than 60%)
CCN(c1cc(-c2ccc(OCCCCOCCOc3cc(-c4scnc4C)ccc3CNC(=O)[C@@H]3C[C@@H](O)CN3C(=O)[C@H](C(C)C)N3Cc4ccccc4C3=O)cc2)cc(C(=O)NCc2c(C)cc(C)[nH]c2=O)c1C)C1CCOCC1 [Compound 53, (2S,4R)-N-{[2-(2-{4-[4-(3-{[(4,6-dimethyl-2-oxo-1,2-dihydropyridin-3-yl)methyl]carbamoyl}-5-[ethyl(oxan-4-yl)amino]-4-methylphenyl)phenoxy]butoxy}ethoxy)-4-(4-methyl-1,3-thiazol-5-yl)phenyl]methyl}-4-hydroxy-1-[(2S)-3-methyl-2-(1-oxo-2,3-dihydro-1H-isoindol-2-yl)butanoyl]pyrrolidine-2-carboxamide]	B (B = degradation between 30% and 60%)
CCN(c1cc(-c2ccc(OCCCOCC(=O)N[C@H](C(=O)N3C[C@H](O)C[C@H]3C(=O)N[C@@H](C)c3ccc(-c4scnc4C)cc3)C(C)(C)C)cc2)cc(C(=O)NCc2c(C)cc(C)[nH]c2=O)c1C)C1CCOCC1 [Compound 95, (2S,4R)-1-((S)-2-(2-(3-((3′-(((4,6-dimethyl-2-oxo-1,2-dihydropyridin-3-yl)methyl)carbamoyl)-5′-(ethyl(tetrahydro-2H-pyran-4-yl)amino)-4′-methyl-[1,1′-biphenyl]-4-yl)oxy)propoxy)acetamido)-3,3-dimethylbutanoyl)-4-hydroxy-N-((S)-1-(4-(4-methylthiazol-5-yl)phenyl)ethyl)pyrrolidine-2-carboxamide]	A (A = degradation more than 60%)
CCN(c1cc(-c2ccc(OCCCOCCOCC(=O)N[C@H](C(=O)N3C[C@H](O)C[C@H]3C(=O)NCc3ccc(-c4scnc4C)cc3)C(C)(C)C)cc2)cc(C(=O)NCc2c(C)cc(C)[nH]c2=O)c1C)C1CCOCC1 [Compound 45, (2S,4R)-1-[(2S)-2-[2-(2-{3-[4-(3-{[(4,6-dimethyl-2-oxo-1,2-dihydropyridin-3-yl)methyl]carbamoyl}-5-[ethyl(oxan-4-yl)amino]-4-methylphenyl)phenoxy]propoxy}ethoxy)acetamido]-3,3-dimethylbutanoyl]-4-hydroxy-N-{[4-(4-methyl-1,3-thiazol-5-yl)phenyl]methyl}pyrrolidine-2-carboxamide]	B (B = degradation between 30% and 60%)
CCN(c1cc(-c2ccc(CCCOCCCCC(=O)N[C@H](C(=O)N3C[C@H](O)C[C@H]3C(=O)NCc3ccc(-c4scnc4C)cc3)C(C)(C)C)cc2)cc(C(=O)NCc2c(C)cc(C)[nH]c2=O)c1C)C1CCOCC1 [Compound 44, (2S,4R)-1-[(2S)-2-(5-{3-[4-(3-{[(4,6-dimethyl-2-oxo-1,2-dihydropyridin-3-yl)methyl]carbamoyl}-5-[ethyl(oxan-4-yl)amino]-4-methylphenyl)phenyl]propoxy}pentanamido)-3,3-dimethylbutanoyl]-4-hydroxy-N-{[4-(4-methyl-1,3-thiazol-5-yl)phenyl]methyl}pyrrolidine-2-carboxamide]	B (B = degradation between 30% and 60%)
CCN(c1cc(-c2ccc(OCCOCCOCCOCCOCCNc3cccc4c3C(=O)N(C3CCC(=O)NC3=O)C4=O)cc2)cc(C(=O)NCc2c(C)cc(C)[nH]c2=O)c1C)C1CCOCC1 (stereo not shown) [Compound 18, N-[(4,6-dimethyl-2-oxo-1,2-dihydropyridin-3-yl)methyl]-5-[4-({1-[2-(2,6-dioxopiperidin-3-yl)-1,3-dioxo-2,3-dihydro-1H-isoindol-4-yl]-4,7,10,13-tetraoxa-1-azapentadecan-15-yl}oxy)phenyl]-3-[ethyl(oxan-4-yl)amino]-2-methylbenzamide]	B (B = degradation between 30% and 60%)
CCN(c1cc(-c2ccc(OCCOCCCOc3ccc4c(c3)C(=O)N(C3CCC(=O)NC3=O)C4=O)cc2)cc(C(=O)NCc2c(C)cc(C)[nH]c2=O)c1C)C1CCOCC1 (stereo not shown) [Compound 58, N-[(4,6-dimethyl-2-oxo-1,2-dihydropyridin-3-yl)methyl]-5-{4-[2-(3-{[2-(2,6-dioxopiperidin-3-yl)-1,3-dioxo-2,3-dihydro-1H-isoindol-5-yl]oxy}propoxy)ethoxy]phenyl}-3-[ethyl(oxan-4-yl)amino]-2-methylbenzamide]	A (A = degradation more than 60%)
CCN(c1cc(-c2ccc(OCCCOCCCOCC(=O)N[C@H](C(=O)N3C[C@H](O)C[C@H]3C(=O)NCc3ccc(-c4scnc4C)cc3)C(C)(C)C)cc2)cc(C(=O)NCc2c(C)cc(C)[nH]c2=O)c1C)C1CCOCC1 [Compound 48, (2S,4R)-1-[(2S)-2-[2-(3-{3-[4-(3-{[(4,6-dimethyl-2-oxo-1,2-dihydropyridin-3-yl)methyl]carbamoyl}-5-[ethyl(oxan-4-yl)amino]-4-methylphenyl)phenoxy]propoxy}propoxy)acetamido]-3,3-dimethylbutanoyl]-4-hydroxy-N-{[4-(4-methyl-1,3-thiazol-5-yl)phenyl]methyl}pyrrolidine-2-carboxamide]	A (A = degradation more than 60%)
CCN(c1cc(-c2ccc(OCCOCCOCC(=O)N[C@H](C(=O)N3C[C@H](O)C[C@H]3C(=O)N[C@@H](C)c3ccc(-c4scnc4C)cc3)C(C)(C)C)cc2)cc(C(=O)NCc2c(C)cc(C)[nH]c2=O)c1C)C1CCOCC1 [Compound 43, (2S,4R)-1-[(2S)-2-[2-(2-{2-[4-(3-{[(4,6-dimethyl-2-oxo-1,2-dihydropyridin-3-yl)methyl]carbamoyl}-5-[ethyl(oxan-4-yl)amino]-4-methylphenyl)phenoxy]ethoxy}ethoxy)acetamido]-3,3-dimethylbutanoyl]-4-hydroxy-N-[(1S)-1-[4-(4-methyl-1,3-thiazol-5-yl)phenyl]ethyl]pyrrolidine-2-carboxamide]	A (A = degradation more than 60%)
